Our source for the inhibition values is patent EP0186977A2, “Renin-inhibitory dipeptides, their preparation and use” (SANKYO COMPANY LIMITED, priority 1984, dated 1986).

Each structure is given as a SMILES string.

In this test the target is T1, human renin (Homo sapiens, UniProt P00797).
T1 sequence (P00797 67-406): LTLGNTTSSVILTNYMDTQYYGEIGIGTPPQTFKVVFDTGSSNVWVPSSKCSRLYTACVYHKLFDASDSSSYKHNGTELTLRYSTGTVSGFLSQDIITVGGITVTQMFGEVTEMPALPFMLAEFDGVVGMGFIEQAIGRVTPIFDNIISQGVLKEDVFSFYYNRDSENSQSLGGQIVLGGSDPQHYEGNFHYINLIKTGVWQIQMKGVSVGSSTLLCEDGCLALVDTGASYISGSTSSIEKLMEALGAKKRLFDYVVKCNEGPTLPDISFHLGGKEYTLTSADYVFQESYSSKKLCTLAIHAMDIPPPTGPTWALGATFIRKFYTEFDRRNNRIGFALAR
Briefly: Inhibition of renin activity (human renin with sheep angiotensinogen, assay of remaining angiotensin I). The format is biochemical. Conditions: 1 x 10 ^6M of the test compound, phosphate buffer pH 7.3, 10 minutes at 37°C, mean of 3 or 4 experiments. As for the experimental part:
The ability of various compounds of the invention to inhibit the activity of renin was determined according to the following method, which follows essentially the procedure of Kokubu et al. [Hypertension, 5, 191-197 (1983)].
Specifically, each test compound was dissolved in 60% v/v aqueous ethanol. Human renin activity in the presence and absence of each compound was measured using sheep angiotensinogen. The total volume of 1 ml of assay mixture contained 0.1 mole/litre phosphate buffer (pH 7.3), human renin (equivalent to 0.5 ng angiotensin I per ml per minute), sheep angiotensinogen (equivalent to 200 ng angiotensin 1), 1 x 10 ^6M of the test compound, 6% v/v ethanol and angiotensinase inhibitors (10 mmole/litre sodium ethylenediaminetetraacetate and 3.4 mmole/litre 8-hydroxyquinoline). The mixture was allowed to react for 10 minutes at 37°C, and then the reaction was stopped by placing the reaction tube in a boiling water bath for 5 minutes. The mixture was then centrifuged and the supernatant (0.05-0.1 ml) was used to assay remaining angiotensin I.
An identical experiment was carried out, as a control, except that the test compound was omitted. From the values obtained were calculated the % inhibition of renin activity achieved by each test compound. The results are shown in the following Table, in which the compounds of the invention are identified by the numbers assigned to them in the foregoing list. The values given are the mean of 3 or 4 experiments.
The isomers of these test compounds employed in these experiments are those isomers prepared as described in the subsequent Examples.
As a reminder, the inhibition is the relative decrease from the control value, in per cent. As to `CC[C@H](C)[C@@H](CO)NC(=O)C[C@H](O)[C@H](CC(C)C)NC(=O)C(Cc1cscn1)NC(=O)C(Cc1cccc2ccccc12)Cc1cccc2ccccc12` (mixture of isomers) [Compound No. 223, N-[4(S)-{N-[Bis(1-naphthylmethyl)acetyl]-3-(4-thiazolyl)-DL-alanylamino}-3(S)-hydroxy-6-methyl-heptanoyl]-L-isoleucinol], the inhibition at 1 µM was 95%. To `C=CCC(NC(=O)C(Cc1cccc2ccccc12)Cc1cccc2ccccc12)C(=O)N[C@@H](CC(C)C)[C@@H](O)CC(=O)N[C@H](CO)[C@@H](C)CC` (mixture of isomers) [compound 291, N-[4(S)-{N-[Bis(1-naphthylmethyl)acetyl]-DL-allylglycylamino}-3(S)-hydroxy-6-methylheptanoyl]-L-isoleucinol] belongs 99%. To `CC[C@H](C)[C@@H](CO)NC(=O)C[C@H](O)[C@H](CC(C)C)NC(=O)[C@H](Cc1c[nH]cn1)NC(=O)C(Cc1cccc2ccccc12)Cc1cccc2ccccc12` [Compound No. 72, N-[4(S)-{N-[Bis(1-naphthylmethyl)acetyl]-L-histidylamino}-3(S)-hydroxy-6-methylheptanoyl]-L-isoleucinol] belongs 99%. To `CC[C@H](C)CNC(=O)C[C@H](O)[C@H](CC(C)C)NC(=O)[C@H](Cc1c[nH]cn1)NC(=O)C(Cc1cccc2ccccc12)Cc1cccc2ccccc12` [Compound No. 74, 4(S)-{N-[Bis(1-naphthylmethyl)acetyl]-L-histidyl-amino}-3(S)-hydroxy-6-methyl-N-[2(S)-(-)-methylbutyl]-heptanamide] belongs 98.2%.

The compound `CCCC[C@H](NC(=O)C(Cc1cccc2ccccc12)Cc1cccc2ccccc12)C(=O)N[C@@H](CC(C)C)[C@@H](O)CC(=O)N[C@H](CO)[C@@H](C)CC` [Compound No. 88, N-[4(S)-{N-[Bis(1-naphthylmethyl)acetyl]-L-norleucylamino}-3(S)-hydroxy-6-methylheptanoyl]-L-isoleucinol] had an inhibition at 1 µM of 99%. To `CC[C@H](C)[C@@H](CO)NC(=O)C[C@H](O)[C@H](CC(C)C)NC(=O)[C@H](CCSC)NC(=O)C(Cc1cccc2ccccc12)Cc1cccc2ccccc12` [Compound No. 196, N-[4(S)-{N-[Bis(1-naphthylmethyl)acetyl]-L-methionyl-amino}-3(S)-hydroxy-6-methylheptanoyl]-L-isoleucinol] belongs 93.5%; to `CCCCCCCC(NC(=O)C(Cc1cccc2ccccc12)Cc1cccc2ccccc12)C(=O)N[C@@H](CC(C)C)[C@@H](O)CC(=O)N[C@H](CO)[C@@H](C)CC` (stereo partly drawn) [Compound No. 286, N-[4(S)-{2(RS)-(Bis(1-naphthylmethyl)acetyl]amino-nonanovl}amino-3(S)-hydroxv-6-methylheptanoyl]-L-isoleucinol], 99%. To `CC(C)C[C@H](NC(=O)C(CCCCc1ccccc1)Cc1cccc2ccccc12)C(=O)N[C@@H](CC(C)C)[C@@H](O)CC(=O)NCCN1CCOCC1` (stereo partly drawn) [compound 15] belongs 93.5%. In turn, `CCOCCNC(=O)C[C@H](O)[C@H](CC(C)C)NC(=O)[C@H](CC(C)C)NC(=O)C(Cc1cccc2ccccc12)Cc1cccc2ccccc12` [compound 45, 4(S)-{N-[Bis(1-naphthylmethyl)acetyl]-L-leucylamino}-3(S)-hydroxv-6-methvl-N-(2-ethoxyethvl)heptanamide] showed an inhibition at 1 µM of 99%.

With `CC[C@H](C)[C@@H](CO)NC(=O)C[C@H](O)[C@H](CC(C)C)NC(=O)[C@H](CCC(N)=O)NC(=O)C(Cc1cccc2ccccc12)Cc1cccc2ccccc12` [compound 208, N-[4(S)-{N-[Bis(1-naphthylmethyl)acetyl]-L-glutaminylamino}-3(S)-hydroxy-6-methylheptanoyl]-L-isoleucinol], the inhibition at 1 µM is 93%. To `CC[C@H](C)[C@@H](CO)NC(=O)C[C@H](O)[C@H](CC(C)C)NC(=O)[C@H](CCC(=O)O)NC(=O)C(Cc1cccc2ccccc12)Cc1cccc2ccccc12` [compound 212] belongs 92%; to `CCCCCC(NC(=O)C(Cc1cccc2ccccc12)Cc1cccc2ccccc12)C(=O)N[C@@H](CC(C)C)[C@@H](O)CC(=O)NCC(C)CC` (stereo partly drawn) [compound 274], 99%.
